Some test systems named below: TK-10 renal; IGROV1 ovarian; HCC-2998 colon; NCI-H522 lung; UACC-257 melanoma; SF-295 CNS; T-47D breast; MOLT-4 leukemia; EKVX NSCLC; K-562 leukemia.
What all share (experiment): NCI-60 cell line screen, 48 h

Molecules are shown by their SMILES.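 Dose response: 5 concentrations. Exposure: 48 h. Format: 96-well plates. Endpoint: linear interpolation; highest concentration if not reached. At the GI50, growth is halved. TGI: total growth inhibition.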 Bounds are passed on as bounds.

Regarding `CS(=O)(=O)CCNCc1nc(-c2ccc3ncnc(Nc4ccc(OCc5cccc(C(F)(F)F)c5)cc4)c3c2)cs1`, the GI50 with TK-10 renal is 1.67 µM; with IGROV1 ovarian it was 5.4 µM; with HCC-2998 colon, more than 25 µM; in the assay on NCI-H522 lung, 9.13 µM; in the assay with UACC-257 melanoma, more than 25 µM; in the assay with SF-295 CNS, 9.45 µM. Further, the GI50 was 5.42 µM in the assay on T-47D breast, more than 25 µM in the assay on MOLT-4 leukemia, more than 20.4 µM with EKVX NSCLC and more than 25 µM with K-562 leukemia. The TGI in the assay on TK-10 renal, with IGROV1 ovarian, in the assay on HCC-2998 colon, with NCI-H522 lung, in the assay with UACC-257 melanoma and in the assay on SF-295 CNS was more than 25 µM throughout. Besides, the TGI in the assay on T-47D breast, in the assay on MOLT-4 leukemia, with EKVX NSCLC and with K-562 leukemia was more than 25 µM in each case.
Regarding `COc1ccc2c(c1)C(=O)c1c-2c(N2CCN(C(=O)CNCCNCCO)CC2)nc2ccccc12`, the GI50 in the assay on TK-10 renal is 13.7 µM; in the assay with IGROV1 ovarian, 1.72 µM; in the assay on HCC-2998 colon, 2.58 µM; in the assay on NCI-H522 lung it was 1.81 µM; in the assay with UACC-257 melanoma it was 2.83 µM; in the assay on SF-295 CNS it was 12.4 µM. Further, the GI50 was 2.49 µM in the assay with T-47D breast, 2.19 µM in the assay with MOLT-4 leukemia, 7.15 µM in the assay on EKVX NSCLC and 2.85 µM in the assay with K-562 leukemia. Besides, the TGI was 32.9 µM with TK-10 renal; 4.73 µM in the assay with IGROV1 ovarian; 7.58 µM in the assay with HCC-2998 colon; 4.08 µM in the assay with NCI-H522 lung; 6.4 µM in the assay on UACC-257 melanoma; 32.3 µM in the assay with SF-295 CNS. In addition, the TGI worked out at 6.55 µM in the assay with T-47D breast, 6.61 µM in the assay on MOLT-4 leukemia, 19.7 µM with EKVX NSCLC and 11.9 µM with K-562 leukemia.
For the compound `CCSc1ncnc2c1ncn2C1OC(CO)C(O)C1O` (centres undefined), the GI50 is 1.56 µM with TK-10 renal; 0.442 µM in the assay with IGROV1 ovarian; 0.203 µM with HCC-2998 colon; 0.648 µM in the assay on NCI-H522 lung; more than 19.8 µM in the assay with UACC-257 melanoma; 0.843 µM in the assay on SF-295 CNS. Further, the GI50 in the assay with T-47D breast is 1.69 µM; with MOLT-4 leukemia it was 0.173 µM; in the assay with EKVX NSCLC it was 0.419 µM; with K-562 leukemia, 3.06 µM. Besides, the TGI in the assay on TK-10 renal is more than 100 µM; with IGROV1 ovarian, 18.1 µM; with HCC-2998 colon, 7.35 µM; with NCI-H522 lung, more than 100 µM; in the assay on UACC-257 melanoma, more than 100 µM; in the assay with SF-295 CNS, more than 43.1 µM. Besides, the TGI was more than 48.9 µM in the assay with T-47D breast, more than 87.1 µM with MOLT-4 leukemia, more than 100 µM in the assay with EKVX NSCLC and more than 100 µM in the assay on K-562 leukemia.
`CC(=O)OC12C=CC(=O)N1c1ccccc1C(=O)O2` (centres undefined): the TGI in the assay on TK-10 renal, in the assay with IGROV1 ovarian, in the assay with HCC-2998 colon, with NCI-H522 lung, in the assay with UACC-257 melanoma and in the assay with SF-295 CNS was more than 100 µM each time. The TGI with T-47D breast, in the assay with MOLT-4 leukemia, in the assay with EKVX NSCLC and in the assay on K-562 leukemia was more than 100 µM in each case. The GI50 in the assay on T-47D breast was more than 100 µM.
Regarding `O=C(N[C@@H](c1ccc(Cl)c(Cl)c1)C1CNC1)c1ccc2cnccc2c1`, the GI50 in the assay on TK-10 renal is 0.133 µM; with IGROV1 ovarian, 0.0324 µM; in the assay with HCC-2998 colon, 0.246 µM; in the assay on NCI-H522 lung, 0.721 µM; with UACC-257 melanoma it was 0.49 µM; with SF-295 CNS, 0.0914 µM. Moreover, the GI50 in the assay with T-47D breast is 0.0591 µM; in the assay on MOLT-4 leukemia, 0.106 µM; in the assay with EKVX NSCLC, 0.288 µM; in the assay with K-562 leukemia, 3.2 µM. Further, the TGI is 3.09 µM in the assay with TK-10 renal; 4.69 µM in the assay with IGROV1 ovarian; 3.51 µM with HCC-2998 colon; 9.2 µM in the assay with NCI-H522 lung; 4.84 µM in the assay with UACC-257 melanoma; 1.21 µM in the assay on SF-295 CNS. The TGI is 3.57 µM with T-47D breast, 6.18 µM in the assay with MOLT-4 leukemia, 16.9 µM in the assay on EKVX NSCLC and more than 40.3 µM in the assay with K-562 leukemia.
Consider `CC(C)Oc1ccc2cc(-c3nn(CC4CCNCC4)c4ncnc(N)c34)ccc2c1`, for which the GI50 in the assay on TK-10 renal was 12.8 µM; with IGROV1 ovarian, 11.1 µM; with HCC-2998 colon, 9.53 µM; in the assay on NCI-H522 lung it was 11 µM; with UACC-257 melanoma, 1.95 µM; with SF-295 CNS, 3.67 µM. Further, the GI50 in the assay on T-47D breast is 9.81 µM; with MOLT-4 leukemia, 1.97 µM; with EKVX NSCLC, 13.6 µM; in the assay with K-562 leukemia it was 2.04 µM. The TGI was 25.7 µM in the assay on TK-10 renal; 24.8 µM in the assay on IGROV1 ovarian; 24.6 µM in the assay with HCC-2998 colon; 25.4 µM in the assay with NCI-H522 lung; 3.98 µM in the assay on UACC-257 melanoma; 14.2 µM with SF-295 CNS. Besides, the TGI in the assay on T-47D breast came out at 24.9 µM; in the assay with MOLT-4 leukemia, 5.95 µM; with EKVX NSCLC, 26.9 µM; in the assay on K-562 leukemia it was 6.29 µM.
As for `COc1cc2c3c(n(C)c(=O)c2cc1OC)-c1cc2c(cc1/C3=C\CN)OCO2`, the GI50 is 4.04 µM in the assay on TK-10 renal; 1.35 µM in the assay on IGROV1 ovarian; 0.0628 µM in the assay on HCC-2998 colon; 0.835 µM in the assay with NCI-H522 lung; 1.44 µM with UACC-257 melanoma; 0.0176 µM in the assay with T-47D breast. Moreover, the GI50 in the assay on MOLT-4 leukemia is less than 0.0208 µM; in the assay with EKVX NSCLC, 11.6 µM; in the assay on K-562 leukemia, 0.106 µM. The TGI with TK-10 renal was 32.8 µM; in the assay on IGROV1 ovarian it was more than 100 µM; with HCC-2998 colon, 0.589 µM; with NCI-H522 lung, more than 43.5 µM; in the assay with UACC-257 melanoma, 20.4 µM; with SF-295 CNS it was 0.614 µM. The TGI was 0.639 µM in the assay on T-47D breast, 0.433 µM in the assay on MOLT-4 leukemia and more than 100 µM with EKVX NSCLC.
`CO/N=C(\COc1ccc2c(c1)oc(=O)c1cc(OC)ccc12)c1ccc(OC)cc1`: the GI50 in the assay with TK-10 renal, with IGROV1 ovarian, with HCC-2998 colon, in the assay with NCI-H522 lung, with UACC-257 melanoma and with SF-295 CNS was more than 100 µM in each case. Also, the GI50 with T-47D breast, in the assay on MOLT-4 leukemia, in the assay with EKVX NSCLC and with K-562 leukemia was more than 100 µM each time. Besides, the TGI with TK-10 renal, in the assay on IGROV1 ovarian, in the assay on HCC-2998 colon, in the assay on NCI-H522 lung, with UACC-257 melanoma and with SF-295 CNS was more than 100 µM each time. Besides, the TGI in the assay with T-47D breast, in the assay with MOLT-4 leukemia, in the assay with EKVX NSCLC and in the assay with K-562 leukemia was more than 100 µM in each case.
As for `COc1c(OC[C@H](O)CN2CCOCC2)ccc2c3n(c(=NC(=O)c4cccnc4C)nc12)CCN3`, the GI50 is 0.0941 µM in the assay on TK-10 renal; 0.06 µM with IGROV1 ovarian; 1.9 µM in the assay with HCC-2998 colon; more than 50 µM with NCI-H522 lung; 1.11 µM in the assay with UACC-257 melanoma; 0.541 µM with SF-295 CNS. Further, the GI50 is 0.0315 µM in the assay with T-47D breast, 0.305 µM with MOLT-4 leukemia, 1.05 µM with EKVX NSCLC and more than 50 µM with K-562 leukemia. In addition, the TGI in the assay on TK-10 renal was more than 50 µM; with IGROV1 ovarian it was 0.343 µM; in the assay on HCC-2998 colon, more than 50 µM; in the assay on NCI-H522 lung it was more than 50 µM; with UACC-257 melanoma, more than 50 µM; with SF-295 CNS, 17.2 µM. Moreover, the TGI in the assay with T-47D breast is 0.361 µM; in the assay on MOLT-4 leukemia, more than 50 µM; in the assay with EKVX NSCLC, more than 50 µM; in the assay on K-562 leukemia, more than 50 µM.
In the case of `[Cl][Hg][c]1cc[c]([Hg][Cl])o1`, the GI50 in the assay with TK-10 renal was 1.7 µM; in the assay with IGROV1 ovarian it was 1.93 µM; with HCC-2998 colon it was 17 µM; in the assay with NCI-H522 lung, 0.367 µM; in the assay with UACC-257 melanoma it was 7.93 µM; in the assay with SF-295 CNS, 19.4 µM. Moreover, the GI50 is 1.18 µM with T-47D breast, 1.58 µM in the assay on MOLT-4 leukemia, 2.78 µM in the assay on EKVX NSCLC and 1.24 µM in the assay with K-562 leukemia. In addition, the TGI in the assay on TK-10 renal was found to be 3.1 µM; with IGROV1 ovarian, 10.1 µM; with HCC-2998 colon it was 42.9 µM; in the assay on NCI-H522 lung, 1.69 µM; in the assay with UACC-257 melanoma, 28.8 µM; in the assay with SF-295 CNS, 58.6 µM. Also, the TGI with T-47D breast was 3.66 µM; in the assay with MOLT-4 leukemia it was 8.59 µM; in the assay on EKVX NSCLC, 28.1 µM; in the assay with K-562 leukemia it was 11.8 µM.

The values are drawn from PubChem BioAssay (NCI).
